The values that follow come from patent US10004701B2, “Methods and compositions for treating infection” (UNIVERSITY OF ROCHESTER, priority 2012, dated 2018).

Where a name gives a salt, the structure may show the parent alone. Read-outs that look alike come from different tables or passages of the source.

Common to all, as to assay: AK assay 384-well format, Prestwick library screening
The subject of one assay is E. cloacae. It counts as cell-based, Enterobacter cloacae. The conditions noted are these: 50 μM final drug concentration; for fold induction at 50 µM: Enterobacter cloacae, 3 h.
Assay [1] has as its system S. aureus strain USA300-0114. It is filed as cell-based, Staphylococcus aureus. The conditions noted are these: 50 μM final drug concentration; for fold induction at 50 µM: Staphylococcus aureus, USA300, 3 h.
For a further assay, the system named is E. faecium. It is filed as cell-based, Enterococcus faecium. The conditions noted are these: 50 μM final drug concentration; for fold induction at 50 µM: Enterococcus faecium, 3 h.
The subject of the next assay is P. aeruginosa. It is filed as cell-based, Pseudomonas aeruginosa. The conditions noted are these: 50 μM final drug concentration; for fold induction at 50 µM: Pseudomonas aeruginosa, 3 h.
For assay [2], the system named is A. baumannii strain 98-37-09. It counts as cell-based, Acinetobacter baumannii. The conditions noted are these: 50 μM final drug concentration; for fold induction at 50 µM: Acinetobacter baumannii, 983709, 3 h.
The next assay relates to E. coli. It counts as cell-based, Escherichia coli. The conditions noted are these: 50 μM final drug concentration; for fold induction at 50 µM: Escherichia coli, 3 h.
For another assay, the system named is K. pneumoniae. It counts as cell-based, Klebsiella pneumoniae. The conditions noted are these: 50 μM final drug concentration; for fold induction at 50 µM: Klebsiella pneumoniae, 3 h.
[3] abbreviates: planktonic E. cloacae, 384-well, cutoff for positive-scoring molecules 3-fold increase, read-out: AK-based Prestwick Library Screening Results: E. cloacae (increase in extracellular AK activity).
[4] abbreviates: planktonic S. aureus, 384-well, cutoff for positive-scoring molecules 3-fold increase, read-out: AK-based Prestwick Library Screening Results: S. aureus (increase in extracellular AK activity).
The mark [5] stands for this setting: planktonic E. faecium, 384-well, cutoff for positive-scoring molecules 3-fold increase, read-out: AK-based Prestwick Library Screening Results: E. faecium (increase in extracellular AK activity).
The mark [6] stands for this setting: planktonic P. aeruginosa, 384-well, cutoff for positive-scoring molecules 3-fold increase, read-out: AK-based Prestwick Library Screening Results: P. aeruginosa (increase in extracellular AK activity).
Setting [7] is: planktonic A. baumannii, 384-well, cutoff for positive-scoring molecules 3-fold increase, read-out: AK-based Prestwick Library Screening Results: A. baumannii (increase in extracellular AK activity).
[8] abbreviates: planktonic E. coli, 384-well, cutoff for positive-scoring molecules 3-fold increase, read-out: AK-based Prestwick Library Screening Results: E. coli (increase in extracellular AK activity).
Where [9] appears, read: planktonic K. pneumoniae, 384-well, cutoff for positive-scoring molecules 3-fold increase, read-out: AK-based Prestwick Library Screening Results: K. pneumoniae (increase in extracellular AK activity).

As to `Br.C[N+]1([O-])[C@@H]2CC(OC(=O)[C@H](CO)c3ccccc3)C[C@H]1[C@@H]1O[C@@H]12` (stereo partly drawn) [Scopolamin-N-oxide hydrobromide], in the assay with E. cloacae (planktonic E. cloacae, 384-well, […]), the “AK-based Prestwick Library Screening Results: E. cloacae (increase in extracellular AK activity)” value was found to be 1.5. In addition, in assay [1] (planktonic S. aureus, 384-well, […]), the “AK-based Prestwick Library Screening Results: S. aureus (increase in extracellular AK activity)” value was 1.4. In the assay on E. faecium (planktonic E. faecium, 384-well, […]), the “AK-based Prestwick Library Screening Results: E. faecium (increase in extracellular AK activity)” value turned out to be 1.1. Moreover, the “AK-based Prestwick Library Screening Results: P. aeruginosa (increase in extracellular AK activity)” value in the assay with P. aeruginosa (planktonic P. aeruginosa, 384-well, […]) is 1.3. Further, the “AK-based Prestwick Library Screening Results: A. baumannii (increase in extracellular AK activity)” value in assay [2] (planktonic A. baumannii, 384-well, […]) came out at 1.4. Also, the “AK-based Prestwick Library Screening Results: E. coli (increase in extracellular AK activity)” value in the assay on E. coli (planktonic E. coli, 384-well, […]) turned out to be 1.2. In the assay on K. pneumoniae (planktonic K. pneumoniae, 384-well, […]), the “AK-based Prestwick Library Screening Results: K. pneumoniae (increase in extracellular AK activity)” value is reported as 1.2.
As for `[H]/N=C(/N)N[C@H]1[C@H](O)[C@@H](O)[C@H](O[C@@H]2O[C@@H](C)[C@](O)(C=O)[C@H]2O[C@@H]2O[C@@H](CO)[C@H](O)[C@@H](O)[C@@H]2NC)[C@@H](N/C(N)=N\[H])[C@@H]1O` [Streptomycin sulfate], the fold induction at 50 µM with E. cloacae (setting [3]) is 0.3; in assay [1] (setting [4]), 0.4; in the assay on E. faecium (setting [5]), 0.9; in the assay with P. aeruginosa (setting [6]), 0.4; in assay [2] (setting [7]), 0.4; in the assay with E. coli (setting [8]), 0.5. In the assay with K. pneumoniae (setting [9]), the fold induction at 50 µM was determined as 0.3.
Regarding `CCN1C[C@]2(COC)CC[C@H](OC)[C@]34C5C[C@@H]6[C@@H](OC)C[C@@]7(OCO[C@@]7(C13)[C@@H](O)C24)C5[C@H]6OC` (stereo partly drawn) [Delcorine], the fold induction at 50 µM in the assay on E. cloacae (planktonic, […], read-out: AK-based Prestwick Library Screening Results, E. cloacae (fold increase in extracellular AK activity)) came out at 1.2; in assay [1] (planktonic, […], read-out: AK-based Prestwick Library Screening Results, S. aureus (fold increase in extracellular AK activity)), 0.7; in the assay with E. faecium (planktonic, […], read-out: AK-based Prestwick Library Screening Results, E. faecium (fold increase in extracellular AK activity)) it was 0.9; with P. aeruginosa (planktonic, […], read-out: AK-based Prestwick Library Screening Results, P. aeruginosa (fold increase in extracellular AK activity)), 0.9; in assay [2] (planktonic, […], read-out: AK-based Prestwick Library Screening Results, A. baumannii (fold increase in extracellular AK activity)), 0.9; with E. coli (planktonic, […], read-out: AK-based Prestwick Library Screening Results, E. coli (fold increase in extracellular AK activity)), 0.8. Moreover, the fold induction at 50 µM in the assay on K. pneumoniae (planktonic, […], read-out: AK-based Prestwick Library Screening Results, K. pneumoniae (fold increase in extracellular AK activity)) is 0.7.
In the case of `NS(=O)(=O)c1cc2c(cc1Cl)N=C(CSCc1ccccc1)NS2(=O)=O` [Benzthiazide], the fold induction at 50 µM in the assay with E. cloacae (planktonic, cutoff for positive-scoring molecules 3-fold increase, read-out: AK-based Prestwick Library Screening Results, E. cloacae (fold increase in extracellular AK activity)) was determined as 1.1; in assay [1] (planktonic, cutoff for positive-scoring molecules 3-fold increase, read-out: AK-based Prestwick Library Screening Results, S. aureus (fold increase in extracellular AK activity)) it was 0.8; with E. faecium (planktonic, cutoff for positive-scoring molecules 3-fold increase, read-out: AK-based Prestwick Library Screening Results, E. faecium (fold increase in extracellular AK activity)), 1.4; in the assay with P. aeruginosa (planktonic, cutoff for positive-scoring molecules 3-fold increase, read-out: AK-based Prestwick Library Screening Results, P. aeruginosa (fold increase in extracellular AK activity)) it was 0.9; in assay [2] (planktonic, cutoff for positive-scoring molecules 3-fold increase, read-out: AK-based Prestwick Library Screening Results, A. baumannii (fold increase in extracellular AK activity)) it was 0.9; in the assay with E. coli (planktonic, cutoff for positive-scoring molecules 3-fold increase, read-out: AK-based Prestwick Library Screening Results, E. coli (fold increase in extracellular AK activity)), 0.9. Also, in the assay on K. pneumoniae (planktonic, cutoff for positive-scoring molecules 3-fold increase, read-out: AK-based Prestwick Library Screening Results, K. pneumoniae (fold increase in extracellular AK activity)), the fold induction at 50 µM is 0.8.
In the case of `CCOC(=O)Nc1ccc2c(c1)N(C(=O)CCN1CCOCC1)c1ccccc1S2` [Moricizine hydrochloride], the fold induction at 50 µM is 0.7 in the assay with E. cloacae (cutoff for positive-scoring molecules 3-fold increase, read-out: AK-based Prestwick Library Screening Results, E. cloacae (fold increase in extracellular AK activity)); 0.6 in assay [1] (cutoff for positive-scoring molecules 3-fold increase, read-out: AK-based Prestwick Library Screening Results, S. aureus (fold increase in extracellular AK activity)); 1 in the assay on E. faecium (cutoff for positive-scoring molecules 3-fold increase, read-out: AK-based Prestwick Library Screening Results, E. faecium (fold increase in extracellular AK activity)); 0.6 with P. aeruginosa (cutoff for positive-scoring molecules 3-fold increase, read-out: AK-based Prestwick Library Screening Results, P. aeruginosa (fold increase in extracellular AK activity)); 0.6 in assay [2] (cutoff for positive-scoring molecules 3-fold increase, read-out: AK-based Prestwick Library Screening Results, A. baumannii (fold increase in extracellular AK activity)); 0.6 in the assay on E. coli (cutoff for positive-scoring molecules 3-fold increase, read-out: AK-based Prestwick Library Screening Results, E. coli (fold increase in extracellular AK activity)). Also, the fold induction at 50 µM with K. pneumoniae (cutoff for positive-scoring molecules 3-fold increase, read-out: AK-based Prestwick Library Screening Results, K. pneumoniae (fold increase in extracellular AK activity)) is 0.6.
Take `CCCCN1CCCCC1C(=O)Nc1c(C)cccc1C` (stereo not drawn) [Bupivacaine hydrochloride]: the fold induction at 50 µM stood at 1.5 in the assay with E. cloacae (setting [3]); 1.1 in assay [1] (setting [4]); 1 with E. faecium (setting [5]); 1.2 in the assay on P. aeruginosa (setting [6]); 1.4 in assay [2] (setting [7]); 1.3 in the assay on E. coli (setting [8]). Further, the fold induction at 50 µM in the assay on K. pneumoniae (setting [9]) was determined as 1.
